Results on 66 molecules are retold here after the Kinase Knowledgebase extract (Sharma et al. 2016).

SMILES strings stand for the structures.

For this assay, the target named is PIK3CB;PIK3CG;PIK3CD;PIK3CA (human) (UniProt P48736). In words: Inhibition of PIK3CA/PIK3CB/PIK3CD/PIK3CG Kinase Activity.
`O=C(O)c1cc(Cl)c2nc(N3CCOCC3)nc(-c3ccccc3)c2n1` showed an IC50 of 678 nM.
For `Cc1cc(C(=O)O)nc2c(-c3cccc(O)c3)nc(N3CCOCC3)nc12` the value was 225 nM; for `COc1cccc(-c2nc(N3CCOCC3)nc3c(Cl)cc(C(=O)O)nc23)c1`, 1080 nM.
Regarding `COCCN(C)c1cc(C(=O)O)nc2c(-c3cccc(F)c3O)nc(N3CCOCC3)nc12`, the IC50 is 9 nM.
With `CNc1cc(C(=O)O)nc2c(-c3cccc(F)c3O)nc(N3CCOCC3)nc12`, the IC50 stood at 48 nM. This IC50 lies about 5.3-fold higher than the previous one.
`CN(C)c1cc(C(=O)O)nc2c(-c3cccc(C#N)c3)nc(N3CCOCC3)nc12` returned an IC50 of 1100 nM.
For the molecule `CS(=O)(=O)N1CCN(c2cc(C(=O)O)nc3c(-c4cccc(O)c4)nc(N4CCOCC4)nc23)CC1`, the half-inhibitory concentration (IC50) was 15 nM.
Turning to `COCCNc1cc(C(=O)O)nc2c(-c3ccc(CO)cc3)nc(N3CCOCC3)nc12`, the IC50 was determined as 346 nM.
`CN(C)c1cc(C(=O)O)nc2c(-c3cccc4[nH]ccc34)nc(N3CCOCC3)nc12`: the IC50 is 132 nM.
Molecule `CN(CCO)c1cc(C(=O)O)nc2c(-c3cccc(CO)c3)nc(N3CCOCC3)nc12` gave a 50% inhibitory concentration (IC50) of 74 nM.
`COCCN(C)c1cc(C(=O)O)nc2c(-c3cc(O)cc(F)c3)nc(N3CCOCC3)nc12` showed a concentration for half-maximal inhibition (IC50) of 19 nM.
For `CS(=O)(=O)c1cc(C(=O)O)nc2c(-c3cccc(F)c3O)nc(N3CCOCC3)nc12` the value was 26 nM.
In turn, `CS(=O)(=O)c1cc(C(=O)O)nc2c(-c3ccc(O)c(F)c3)nc(N3CCOCC3)nc12` returned an IC50 of 335 nM.
On to `COCCN(C)c1cc(C(=O)O)nc2c(-c3ccc4[nH]ccc4c3)nc(N3CCOCC3)nc12`, for which the IC50 came to 169 nM.
`CN(C)c1cc(C(=O)O)nc2c(-c3ccc(F)c(CO)c3)nc(N3CCOCC3)nc12` gave an IC50 of 329 nM.
Consider `CN(C)CCN(C)c1cc(C(=O)O)nc2c(-c3ccccc3O)nc(N3CCOCC3)nc12`, for which the half-inhibitory concentration (IC50) amounted to 459 nM.
Then `CNc1cc(C(=O)O)nc2c(-c3cc(F)ccc3O)nc(N3CCOCC3)nc12`, with 304 nM.
Molecule `O=C(O)c1cc(NCCO)c2nc(N3CCOCC3)nc(-c3cccc(O)c3)c2n1` gave an IC50 of 75 nM.
`CN(CCO)c1cc(C(=O)O)nc2c(-c3ccc(F)c(CO)c3)nc(N3CCOCC3)nc12` gave a concentration for half-maximal inhibition (IC50) of 303 nM.
Then `O=C(O)c1ccc2nc(N3CCOCC3)nc(-c3ccc(O)cc3)c2n1`, with 855 nM; and `COCCNc1cc(C(=O)O)nc2c(-c3ccc(F)cc3O)nc(N3CCOCC3)nc12`, with 89 nM; and `CS(=O)(=O)N1CCN(c2cc(C(=O)O)nc3c(-c4ccccc4)nc(N4CCOCC4)nc23)CC1`, with 30 nM.
The molecule `COCc1cccc(-c2nc(N3CCOCC3)nc3c(N(C)CCO)cc(C(=O)O)nc23)c1` had an IC50 of 1850 nM.
The molecule `CNc1cc(C(=O)O)nc2c(-c3cccc4[nH]ccc34)nc(N3CCOCC3)nc12` returned an IC50 of 780 nM.
Then `CNc1cc(C(=O)O)nc2c(-c3ccc(F)cc3O)nc(N3CCOCC3)nc12`, with 412 nM; and `CN(C)c1cc(C(=O)O)nc2c(-c3ccc(F)cc3O)nc(N3CCOCC3)nc12`, with 83 nM.
For `O=C(O)c1cc(NCCO)c2nc(N3CCOCC3)nc(-c3cccc(F)c3O)c2n1`, the half-inhibitory concentration (IC50) was determined as 43 nM.
Molecule `O=C(O)c1cc(NCCO)c2nc(N3CCOCC3)nc(-c3ccccc3O)c2n1` yielded a half-maximal inhibitory concentration (IC50) of 82 nM.
Then `COc1ccccc1-c1cc(C(=O)O)nc2c(-c3cccc(O)c3)nc(N3CCOCC3)nc12`, with 24 nM; and `COc1cccc(-c2nc(N3CCOCC3)nc3ccc(C(=O)O)nc23)c1`, with 4490 nM.
Then `O=C(O)c1cc(NCCO)c2nc(N3CCOCC3)nc(-c3cccc(CO)c3)c2n1`, with 27 nM; and `CN(C)c1cc(C(=O)O)nc2c(-c3cc(F)ccc3O)nc(N3CCOCC3)nc12`, with 66 nM.
Molecule `O=C(O)c1cc(NCCO)c2nc(N3CCOCC3)nc(-c3ccc(O)cc3)c2n1` returned a half-maximal inhibitory concentration (IC50) of 732 nM. This IC50 lies about 11-fold higher than the previous one.
In the case of `CN(CCO)c1cc(C(=O)O)nc2c(-c3cccc(F)c3O)nc(N3CCOCC3)nc12`, the IC50 came to 10 nM.
Then `CN(C)c1cc(C(=O)O)nc2c(-c3cccc(CO)c3)nc(N3CCOCC3)nc12`, with 34 nM; and `COCCN(C)c1cc(C(=O)O)nc2c(-c3cc(F)cc(F)c3)nc(N3CCOCC3)nc12`, with 1290 nM; and `COCCOc1cc(C(=O)O)nc2c(-c3ccc(O)cc3)nc(N3CCOCC3)nc12`, with 2520 nM.
`COCCN(C)c1cc(C(=O)O)nc2c(-c3ccc(O)cc3)nc(N3CCOCC3)nc12` came in with an IC50 of 290 nM.
Regarding `O=C(O)c1cc(NCCO)c2nc(N3CCOCC3)nc(-c3cc(O)cc(F)c3)c2n1`, the IC50 amounted to 64 nM.
For the molecule `COCc1cccc(-c2nc(N3CCOCC3)nc3c(N(C)C)cc(C(=O)O)nc23)c1`, the half-maximal inhibitory concentration (IC50) worked out at 5050 nM.
The molecule `COCCN(C)c1cc(C(=O)O)nc2c(-c3ccc(F)cc3O)nc(N3CCOCC3)nc12` had an IC50 of 62 nM. This IC50 is about 81-fold lower than that of the molecule before.
`CN(C)CCN(C)c1cc(C(=O)O)nc2c(-c3cccc4[nH]ccc34)nc(N3CCOCC3)nc12` displayed an IC50 of 137 nM. Against the preceding molecule, the IC50 is about 2.2-fold higher.
`COCCNc1cc(C(=O)O)nc2c(-c3cccc(COC)c3)nc(N3CCOCC3)nc12`: the half-inhibitory concentration (IC50) stood at 1830 nM. This IC50 is about 13-fold higher than that of the molecule before.
In turn, `COCCNc1cc(C(=O)O)nc2c(-c3cccc(F)c3O)nc(N3CCOCC3)nc12` showed a concentration for half-maximal inhibition (IC50) of 18 nM.
Regarding `CN(C)CCN(C)c1cc(C(=O)O)nc2c(-c3cc(F)ccc3O)nc(N3CCOCC3)nc12`, the half-inhibitory concentration (IC50) came out at 564 nM.
In turn, `O=C(O)c1cc(-c2cccc3ccccc23)c2nc(N3CCOCC3)nc(-c3cccc(O)c3)c2n1` gave an IC50 of 57 nM.
`Cc1cc(O)ccc1-c1nc(N2CCOCC2)nc2c(N(C)CCO)cc(C(=O)O)nc12` registered an IC50 of 936 nM.
Then `CS(=O)(=O)c1cc(C(=O)O)nc2c(-c3cc(O)cc(F)c3)nc(N3CCOCC3)nc12`, with 15 nM; and `COCCN(C)c1cc(C(=O)O)nc2c(-c3cccc(O)c3)nc(N3CCOCC3)nc12`, with 28 nM; and `COCc1cccc(-c2nc(N3CCOCC3)nc3c(NCCO)cc(C(=O)O)nc23)c1`, with 2490 nM.
For `CN(CCO)c1cc(C(=O)O)nc2c(-c3ccc(F)cc3O)nc(N3CCOCC3)nc12` the value was 220 nM; for `COCCOc1cc(C(=O)O)nc2c(-c3cc(O)cc(F)c3)nc(N3CCOCC3)nc12`, 93 nM.
For `COCCNc1cc(C(=O)O)nc2c(-c3ccc(O)cc3)nc(N3CCOCC3)nc12` the value was 504 nM; for `CN(CCO)c1cc(C(=O)O)nc2c(-c3cccc4[nH]ccc34)nc(N3CCOCC3)nc12`, 77 nM.
On to `CS(=O)(=O)c1cc(C(=O)O)nc2c(-c3cc(F)ccc3O)nc(N3CCOCC3)nc12`, for which the half-inhibitory concentration (IC50) stood at 139 nM. This IC50 is about 1.8-fold higher than that of the molecule before.
Consider `COCCNc1cc(C(=O)O)nc2c(-c3cccc4[nH]ccc34)nc(N3CCOCC3)nc12`, for which the IC50 is 128 nM. This IC50 and that of the molecule before are within 1.5-fold of each other.
Regarding `COCCNc1cc(C(=O)O)nc2c(-c3cc(F)ccc3O)nc(N3CCOCC3)nc12`, the IC50 worked out at 73 nM. Against the preceding molecule, the IC50 is about 1.8-fold lower.
Molecule `O=C(O)c1ccc2nc(N3CCOCC3)nc(-c3cccc(O)c3)c2n1` registered a 50% inhibitory concentration (IC50) of 63 nM.
Regarding `CNc1cc(C(=O)O)nc2c(-c3cccc(O)c3)nc(N3CCOCC3)nc12`, the half-inhibitory concentration (IC50) turned out to be 144 nM.
For `CN(C)c1cc(C(=O)O)nc2c(-c3ccccc3O)nc(N3CCOCC3)nc12` the value was 23 nM; for `COCCOc1cc(C(=O)O)nc2c(-c3cccc(O)c3)nc(N3CCOCC3)nc12`, 255 nM.
In turn, `CN(C)c1cc(C(=O)O)nc2c(-c3ccc(O)cc3)nc(N3CCOCC3)nc12` registered an IC50 of 350 nM.
In turn, `CC(=O)N1CCN(c2cc(C(=O)O)nc3c(-c4cccc(O)c4)nc(N4CCOCC4)nc23)CC1` returned a half-maximal inhibitory concentration (IC50) of 80 nM.
The molecule `O=C(O)c1cc(Cl)c2nc(N3CCOCC3)nc(-c3cccc(O)c3)c2n1` displayed an IC50 of 108 nM.
`COCCN(C)c1cc(C(=O)O)nc2c(-c3ccc(CO)cc3)nc(N3CCOCC3)nc12` displayed an IC50 of 546 nM.
For `COCCN(C)c1cc(C(=O)O)nc2c(-c3cccc(CO)c3)nc(N3CCOCC3)nc12` the value was 8 nM.
